# Assay results taken from patent publication US9708251B2, “Unsaturated fatty alcohol alkoxylates from natural oil metathesis” (Stepan Company, priority 2012, dated 2017).
# Columns and labels:
# [1] = Emulsion stability testing of nonionic emulsifiers, aromatic solvent series; format: physicochemical; set-up: key to 24 h separation, appearance / 1 h separation, appearance / 1 h separation, amount: C = creamy; CO = creamy oil; O = oil; GC = gritty cream; NS = no separation; OC = oily cream; key to Spon. (spontaneity): G = good; F = fair; P = poor
# [2] = Emulsion stability testing of nonionic emulsifiers, Hallcomid solvent series; format: physicochemical; set-up: key to 24 h separation, appearance / 1 h separation, appearance / 1 h separation, amount: C = creamy; CO = creamy oil; O = oil; GC = gritty cream; NS = no separation; OC = oily cream; key to Spon. (spontaneity): G = good; F = fair; P = poor
# [3] = Surfactant phase behavior study (cross-polarized microscopy); format: physicochemical; conditions: room temperature, in deionized water
# In short: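 Saturated analogs serve as comparators. Water dilutions of the product, stepped at 2-4% near transitions, equilibrated between slide and cover glass and assigned phase by cross-polarized microscopy texture at 100-400×, 20-22° C. Boundaries lie within ±5% actives; some samples checked by viscosity at 25° C.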
# [4] = Performance as a latex paint additive (formulation, KU, rating); conditions: initial KU of 90; additive 1% active based on latex solids
# Protocol: Titanium dioxide slurry (Dupont Ti-Pure® R746) is charged to a container, followed by deionized water and propylene glycol, and the contents are mixed (500 rpm). […] The pH is adjusted to 9.0 using ammonium hydroxide solution. The batch is mixed for 30 min. and then allowed to stand for at least 2 h. […] Viscosity is adjusted to an initial KU of 90 with more thickener.
# [5] = Emulsion stability testing of nonionic emulsifiers, Hallcomid solvent series; format: physicochemical; set-up: key: C = creamy; CO = creamy oil; O = oil; GC = gritty cream; NS = no separation; OC = oily cream; conditions: Bifenthrin 240 g/L in Hallcomid M-8-10, 34 ppm water
# [6] = 2,4-D ester 480 g/L in Exxsol D-110, 34 ppm water
# [7] = 2,4-D ester 480 g/L in Exxsol D-110, 1000 ppm water
# [8] = Bifenthrin 240 g/L in Aromatic 100, 34 ppm water
# [9] = Bifenthrin 240 g/L in Aromatic 100, 1000 ppm water
# [10] = Tebuconazole 360 g/L in N-methyl-2-pyrrolidone, 34 ppm water
# [11] = Tebuconazole 360 g/L in N-methyl-2-pyrrolidone, 1000 ppm water
# [12] = 2,4-D diester 480 g/L in Hallcomid M-8-10, 34 ppm water
# [13] = 2,4-D diester 480 g/L in Hallcomid M-8-10, 1000 ppm water
# [14] = Bifenthrin 240 g/L in Hallcomid M-8-10, 34 ppm water
# [15] = Bifenthrin 240 g/L in Hallcomid M-8-10, 1000 ppm water
# [16] = Tebuconazole 360 g/L in Hallcomid M-8-10, 34 ppm water
# [17] = Tebuconazole 360 g/L in Hallcomid M-8-10, 1000 ppm water
smiles,measurement,setting,value
CCC=CCCCCCCCCOCCOCCOCCOCCOCCOCCOCCOCCOCCOCCOCCOCCOCCOCCOCCO (mixture of isomers) [A12-16],"1 h separation, amount",[1]; [6],3.9 mL
same,"1 h separation, appearance",[1]; [6],C
same,"24 h separation, amount",[1]; [6],5.3 mL
same,"24 h separation, appearance",[1]; [6],C
same,Spon. (spontaneity),[1]; [6],P
same,"1 h separation, amount",[1]; [7],2.9 mL
same,"1 h separation, appearance",[1]; [7],C
same,"24 h separation, amount",[1]; [7],4 mL
same,"24 h separation, appearance",[1]; [7],C
same,Spon. (spontaneity),[1]; [7],P
same,"1 h separation, amount",[1]; [8],5.9 mL
same,"1 h separation, appearance",[1]; [8],C
same,"24 h separation, amount",[1]; [8],6 mL
same,"24 h separation, appearance",[1]; [8],C
same,Spon. (spontaneity),[1]; [8],F
same,"1 h separation, amount",[1]; [9],5.5 mL
same,"1 h separation, appearance",[1]; [9],C
same,"24 h separation, amount",[1]; [9],5 mL
same,"24 h separation, appearance",[1]; [9],C
same,Spon. (spontaneity),[1]; [9],P
same,"1 h separation, amount",[1]; [10],1.8 mL
same,"1 h separation, appearance",[1]; [10],CO
same,"24 h separation, amount",[1]; [10],3 mL
same,"24 h separation, appearance",[1]; [10],GC
same,Spon. (spontaneity),[1]; [10],F
same,"1 h separation, amount",[1]; [11],1.9 mL
same,"1 h separation, appearance",[1]; [11],CO
same,"24 h separation, amount",[1]; [11],3 mL
same,"24 h separation, appearance",[1]; [11],GC
same,Spon. (spontaneity),[1]; [11],F
same,"1 h separation, amount",[2]; [12],4.5 mL
same,"1 h separation, appearance",[2]; [12],C
same,"24 h separation, amount",[2]; [12],8.5 mL
same,"24 h separation, appearance",[2]; [12],C
same,Spon. (spontaneity),[2]; [12],P
same,"1 h separation, amount",[2]; [13],4 mL
same,"1 h separation, appearance",[2]; [13],C
same,"24 h separation, amount",[2]; [13],7 mL
same,"24 h separation, appearance",[2]; [13],C
same,Spon. (spontaneity),[2]; [13],P
same,"1 h separation, amount",[2]; [14],NS
same,Spon. (spontaneity),[2]; [14],G
same,"1 h separation, amount",[2]; [15],6.2 mL
same,"1 h separation, appearance",[2]; [15],CO
same,"24 h separation, amount",[2]; [15],"2 O, 3.6 CO"
same,Spon. (spontaneity),[2]; [15],F
same,"1 h separation, amount",[2]; [16],1.5 mL
same,"1 h separation, appearance",[2]; [16],C
same,"24 h separation, amount",[2]; [16],3 mL
same,"24 h separation, appearance",[2]; [16],C
same,Spon. (spontaneity),[2]; [16],F
same,"1 h separation, amount",[2]; [17],1.5 mL
same,"1 h separation, appearance",[2]; [17],C
same,"24 h separation, amount",[2]; [17],3 mL
same,"24 h separation, appearance",[2]; [17],C
same,Spon. (spontaneity),[2]; [17],F
same,Cubic phase region,[3],30-57 % Actives Level
same,Hexagonal phase region,[3],60-70 % Actives Level
same,Paste phase region,[3],93-100 % Actives Level
same,final KU of paint after 24 h,[4],93-100 KU
same,"24 h separation, amount",[5],NS
